Values of other authors as cited in patent publication US8545896B2, “Compositions, kits and methods for nutrition supplementation” (Chemo S. A. France, priority 2011, dated 2013).

Conditions: intake of about 1000 IU per day, all adults

C=C1CC[C@H](O)C/C1=C/C=C1\CCC[C@]2(C)[C@@H]([C@H](C)CCCC(C)C)CC[C@@H]12 [vitamin D3, cholecalciferol]
share of the population brought up to the 30 ng/ml serum range for 25-hydroxyvitamin D: at least 50%
